Measured values published in PubChem BioAssay (NCI).
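Five concentrations, 48 hours, 96-well plates. GI50 marks 50% less growth. TGI is the concentration that stops growth completely.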

Key:
Test in all cases: DTP human tumour cell line panel, 48 h
[1] = tested on: NCI/ADR-RES ovarian
[2] = tested on: OVCAR-5 ovarian
[3] = tested on: SF-295 CNS
[4] = tested on: PC-3 prostate
[5] = tested on: BT-549 breast
[6] = tested on: COLO 205 colon
[7] = tested on: MOLT-4 leukemia
[8] = tested on: SN12C renal
[9] = tested on: U251 CNS
[10] = tested on: MCF7 breast

Row | Structure (SMILES) | TGI [1] [µM] | TGI [2] [µM] | TGI [3] [µM] | TGI [4] [µM] | TGI [5] [µM] | TGI [6] [µM] | TGI [7] [µM] | TGI [8] [µM] | TGI [9] [µM] | TGI [10] [µM] | GI50 [1] [µM] | GI50 [2] [µM] | GI50 [3] [µM] | GI50 [4] [µM] | GI50 [5] [µM] | GI50 [6] [µM] | GI50 [7] [µM] | GI50 [8] [µM] | GI50 [9] [µM] | GI50 [10] [µM]
1 | CCOC(=O)/C(C#N)=N\Nc1ccc(-n2c(C)nc3ccccc3c2=O)cc1 | 86.8 | > 100 | > 100 | > 100 | > 100 | > 100 | > 100 | > 100 | > 100 | > 100 |  |  |  |  |  |  |  |  |  | 
2 | Brc1cccc(N=NN2CCCC2)c1 | > 100 | > 100 | > 100 | > 100 | > 100 | > 100 | > 100 | > 100 | > 100 | > 100 |  |  |  |  |  |  |  |  |  | 
3 | COc1cc2c(/C=C3/C(=O)Nc4ccccc43)c(Cl)[nH]c2cc1C | 0.894 | 23.7 | 1.19 | 16.3 | 17.1 | 1.73 | 14.2 | 13.1 | 10.9 | 16.6 |  |  |  |  |  |  |  |  |  | 
4 | COCc1nc2c(OC)cc(-c3nc4ccc(N5CCN(C)CC5)cc4[nH]3)c(OC)c2[nH]1 | > 100 | > 100 | 47.2 | > 100 | > 100 | 77 | > 100 | > 100 | > 100 | > 100 |  |  |  |  |  |  |  |  |  | 
5 | O=c1oc2cc(O)ccc2c(O)c1C(c1ccc(C(c2c(O)c3ccc(O)cc3oc2=O)c2c(O)c3ccc(O)cc3oc2=O)cc1)c1c(O)c2ccc(O)cc2oc1=O | > 100 | > 100 | > 100 | > 100 | > 100 | > 100 | > 100 | > 100 | > 100 | > 100 |  |  |  |  |  |  |  |  |  | 
6 | Brc1ccc2c(-c3csc(-c4c[nH]c5ccc(Br)cc45)n3)c[nH]c2c1 | 21.2 | 7.54 | 10.9 | 19.8 | 27.7 | > 26.7 | > 22.4 | 18.9 | 16.5 | > 100 |  |  |  |  |  |  |  |  |  | 
7 | CC1(C)OCC2OC3([C@H]4OC(C)(C)O[C@@H]4CO)OC(C)(C)OC3C2O1 (stereo not given in full) | > 100 | > 100 | > 100 | > 100 | > 100 | > 100 | > 100 | > 100 | > 100 | > 100 |  |  |  |  |  |  |  |  |  | 
8 | Clc1ccc(OCc2nnc(CCCCCCCCc3nnc(COc4ccc(Cl)cc4)n3Nc3ccccc3)n2Nc2ccccc2)cc1 | 81.5 | > 100 | > 100 | > 100 | 97.5 | 0.894 | > 100 | 99 | > 87.4 | > 100 |  |  |  |  |  |  |  |  |  | 
9 | COc1cc(CN2CCCCC2)cc2cc(C(=O)O)c(=O)oc12 | > 100 | > 100 | > 100 | > 100 | > 100 | > 100 | > 100 | > 100 | > 100 | > 100 |  |  |  |  |  |  |  |  |  | 
10 | Brc1ccc2c(-c3csc(-c4c[nH]c5cc(Br)ccc45)n3)c[nH]c2c1 | > 87 | > 90.2 | 45.5 | > 79.5 | > 100 | > 100 | > 62.8 | > 100 | 32.1 | > 100 |  |  |  |  |  |  |  |  |  | 
11 | O=c1c2ccccc2nc(Nc2cccc(Cl)c2)n1/N=C/C=C/c1ccccc1 | > 100 | > 100 | > 100 | 97.4 | > 100 | > 100 | > 100 | > 100 | > 100 | 74.7 |  |  |  |  |  |  |  |  |  | 
12 | N#Cc1c(-c2ccc(F)cc2)nc(N/N=C/c2c[nH]c3ccccc23)nc1N1CCOCC1 | > 100 | 74 | 4.29 | > 100 | 30.9 | 18.2 | 9.63 | > 100 | 17.7 | 57.4 | 13.2 | 19.5 | 1.89 | 3.54 | 5.43 | 2.37 | 1.6 | 16.6 | 2.16 | 4.56
13 | CSc1nc2c(c(=O)n1C)N=C(c1ccccc1)[C@H](C(CC(=O)c1ccccc1)c1ccccc1)C(c1ccccc1)N2 (stereo not given in full) | > 100 | > 100 | > 100 | > 100 | > 100 | > 100 | > 100 | > 100 | > 100 | > 100 |  |  |  |  |  |  |  |  |  | 
14 | Cc1nn(-c2cc(Cl)ccc2[N+](=O)[O-])c(C)c1Cl | > 100 | > 100 | > 100 | > 100 | > 100 | > 100 | > 100 | > 100 | > 100 | > 100 |  |  |  |  |  |  |  |  |  | 
15 | Cc1nc(C)c(Cc2ccccc2)o1 | > 100 | > 100 | > 100 | > 100 | > 100 | > 100 | > 100 | > 100 | > 100 | > 100 |  |  |  |  |  |  |  |  |  | 
16 | CC1(C)C=C(S(=O)(=O)c2ccccc2)Oc2ccccc2O1 | > 100 | > 100 | > 100 | > 100 | > 100 | 35.1 | 71.9 | > 100 | > 100 | > 100 |  |  |  |  |  |  |  |  |  | 
